Patent US20200155609A1, “COMPOSITIONS AND METHODS OF MAKING EXPANDED HEMATOPOIETIC STEM CELLS USING PTEN INHIBITORS” (Transfusion Health LLC, priority 2017, published 2020)

Key:
[1] = test system: Primary human CD34+ cells isolated from mobilized peripheral blood; experiment: Relative expansive effect (relative cell number), mobilized peripheral blood CD34+ cells in StemSpan SFEM (Example 23); type: cell-based
Protocol: Mobilized peripheral blood was purchased from StemCell Technologies. The blood was mobilized using G-CSF from volunteer donors. Volunteers were administered a maximum of 10 ug/kg/day of granulocyte colony-stimulating factor (G-CSF) for 3-5 days prior to collection. Primary human CD34+ cells were isolated from mobilized peripheral blood leukapheresis samples using positive immunomagnetic separation techniques.
Isolated CD34+ cells were incubated in an in vitro culture media of StemSpan SFEM. When testing the substituted derivatives of 9,10-dihydrophenathrene (+Derivative conditions), two internal controls were used: a positive control (+SF conditions) and a baseline control (i.e, basic conditions (“cytokines only”)). The media components and concentrations used for the compounds tested are described in Table 8, above. The culture also included an antibiotic solution that includes penicillin, streptomycin, and amphotericin B to avoid contamination. Controls were included because the amount of expansion in samples obtained varies from individual to individual.
Cultures were incubated at 3% oxygen (controlled by nitrogen) and 5% CO2. […]
Table 10, below, summarizes the relative expansive effect of Compound 1.013 at the indicated concentration. […] Relative cell number is calculated as described in Example 22.

[2] = test system: hematopoietic stem cells derived from cord blood; experiment: Culture of cord blood with SF1670, flow cytometry (Example 19); type: cell-based, human
Protocol: A frozen cord blood sample was thawed and gradually brought to room temperature. Thawed cord blood was incubated in an in vitro culture media of Alpha MEM without phenol red, 10% (v/v) heat inactivated fetal bovine serum (FBS). Base Conditions and +SF Conditions further included the components described in Table 4. Each condition tested also included an antibiotic solution that includes penicillin, streptomycin, and amphotericin B to avoid contamination.
(§1) Cultures were incubated at 3% oxygen (controlled by nitrogen) and 5% CO2.
(§2) Small molecule components were added separately and fresh each time the media needs to be refreshed. Cytokines can be stored together. Media renewal should occur at least every few days.
(§3) On the days indicated one-half of the volume of the cell culture was removed for data analysis (flow cytometry using a BD FACS ARIA II). The culture volume was replenished with fresh media according to the conditions tested. The data reported accounts for the dilution factor introduced in this procedure.

[3] = test system: CD34+ cells isolated from donor non-mobilized peripheral blood (hematopoietic stem cells); experiment: Culture of CD34+ cells from non-mobilized peripheral blood with SF1670 or SF1670 and ER50891, flow cytometry (Example 17); type: cell-based, human; settings: after 7 days in culture, SF1670 250 nM (ER50891 100 nM), compared with Base conditions
Protocol: CD34+ cells were isolated from donor peripheral blood. Whole blood was centrifuged at 1750×g (the speed of centriguation may vary) for 20 minutes. Plasma was drawn off using a pipette or syringe. Concentrated red blood cell (RBC) layer was drawn off with a pipette or syringe. Residual RBCs were lysed using standard RBC lysis protocols. White blood cell (WBC) layer was washed in PBS and spun down several times at 300 g for 7 minutes to remove platelets and some debris. Cells were pelleted and incubated with unlabeled CD64 antibody. Cells then undergo negative depletion using biotinylated CD2, CD3, CD4, CD5, CD8, CD11b, CD14, CD16, CD19, CD20, CD45RA, CD56, CD235 (in some examples CD15, CD25 and other lineage specific antibodies may also be used). Cells which bind these antibodies are depleted using streptavidin beads. The resultant progenitor enriched cell pool were cultured directly (residual mature cells and late progenitors will be killed off over time in culture) or cell pool can undergo a CD34 or CD133 positive selection to further enrich for the desired cells before culturing.
(§4) Isolated CD34+ cells were incubated in an in vitro culture media of Alpha MEM without phenol red, 10% (v/v) heat inactivated fetal bovine serum (FBS). Base Conditions, +SF Conditions, and +SF/+ER conditions further included the components described in Table 2. Each condition tested also included an antibiotic solution that includes penicillin, streptomycin, and amphotericin B to avoid contamination.
as §1, §2, §3

[4] = test system: CD34+ cells isolated from donor non-mobilized peripheral blood; experiment: Titration of SF1670 on CD34+ cells from non-mobilized peripheral blood, flow cytometry (Example 20); type: cell-based, human
Excerpt: CD34+ cells were isolated from donor peripheral blood. Standard ficoll paque layering was used to separate the buffy coat. Cells then undergo negative depletion using biotinylated CD2, CD3, CD4, CD5, CD8, CD1 Ib, CD14, CD16, CD19, CD20, CD45RA, CD56, CD235 (in some examples CD15, CD25 and other lineage specific antibodies may also be used). Cells which bind these antibodies are depleted using streptavidin beads. The depleted cell pool was sorted for CD34+ cells before being placed in cell culture.
as §4, with “(FBS) and” for “(FBS). Base Conditions,”, “conditions. +SF” for “Conditions, and +SF/+ER”, “conditions” for “conditions further”, “5. The culture” for “2. Each condition tested”
as §1, §2, §3

For O=C1C(=O)c2ccc(O)cc2-c2ccccc21 [Compound 1.013, 3-hydroxyphenanthrene-9,10-dione], the “CD133 effect (relative expansive effect, relative cell number)” value ([1]; 7 days in culture, 1 μM sample compound, mobilized peripheral blood, StemSpan SFEM) was “+++ (0.55 ≤ x < 0.9)” and the “expansive effect on HSCs in culture” value ([1]; number of cells per well after 7 days, FIG. 18) was “positive expansive effect”.
For CC(C)(C)C(=O)Nc1ccc2c(c1)C(=O)C(=O)c1ccccc1-2 [SF1670], the “total number of CD34+ cells” value ([2]; +SF conditions (SF1670 500 nM) vs Base conditions, FIG. 3B) was “increase”, the “total number of CD133+ cells” value ([2]; +SF conditions (SF1670 500 nM) vs Base conditions, FIG. 3C) was “increase” and the “total number of CD90+ cells” value ([2]; +SF conditions (SF1670 500 nM) vs Base conditions, FIG. 3D) was “increase”. For the same molecule, the “total number of CD38− cells” value ([2]; +SF conditions (SF1670 500 nM) vs Base conditions, FIG. 3E) was “increase”, the “fold increase in CD34+ cells from day 2” value ([2]; SF1670 500 nM, after 16 days in culture, FIG. 4B) was “greater than 50 fold” and the “fold increase in CD133+ cells from day 2” value ([2]; SF1670 500 nM, after 16 days in culture, FIG. 4C) was “greater than 50 fold”. For the same molecule, the “fold increase in CD90+ cells from day 2” value ([2]; SF1670 500 nM, after 16 days in culture, FIG. 4D) was ~30 fold, the “fold increase in CD38− cells from day 2” value ([2]; SF1670 500 nM, after 16 days in culture, FIG. 4E) was ~5 fold and the “number of CD34+ cells” value ([3]; FIG. 1A) was “increased numbers”. The “number of CD133+ cells” value ([3]; FIG. 1B) was “increased numbers”, the “number of CD90+ cells” value ([3]; FIG. 1C) was “increased numbers” and the “expansive effect on the enhancement of hematopoietic stem cells over the control condition (0 nM SF1670)” value ([4]; SF1670 125 nM, 250 nM and 500 nM, FIG. 5B-5E) was “at least some expansive effect”. The “expansion of any cell type (total cells)” value ([4]; SF1670 1000 nM, FIG. 5A) was “very little expansion” and the expansive effect ([4]; SF1670 1000 nM, days 4 and 7, FIG. 5A-5E) was “reduced expansive effect”.
